In ChEMBL document CHEMBL1201862, “PubChem BioAssay data set” (2004):
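Interpolation was linear, between the two tested concentrations surrounding the appropriate level; five concentrations were tested over 48 hours in 96-well plates. Here, GI50 denotes the concentration required for 50% inhibition of growth.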 Activity calls are given as the source filed them. No stated cut-off is given here; in the data, active = GI50 up to about 1.1 µM and inactive = higher.

Columns and labels:
Assay in all cases: NCI-60 cell line screen, 48 h
SNB-75 = system: SNB-75
HOP-62 = system: HOP-62
HT-29 = system: HT-29
RPMI-8226 = system: RPMI-8226
UO-31 = system: UO-31
ACHN = system: ACHN
SF-268 = system: SF-268
786-0 = system: 786-0
K562 = system: K562
SK-MEL-2 = system: SK-MEL-2
HCC 2998 = system: HCC 2998
CAKI-1 = system: CAKI-1
LXFL 529 = system: LXFL 529
SNB-19 = system: SNB-19
SF-539 = system: SF-539
UACC-62 = system: UACC-62
IGROV-1 = system: IGROV-1

Measured: GI50

COc1ccc(CC2c3c(cc(OC)c(OC)c3OC)CCN2C)cc1OC (stereo not given)
inactive: SNB-75 > 100 µM | HOP-62 > 100 µM | HT-29 > 100 µM | RPMI-8226 > 100 µM | UO-31 > 100 µM | ACHN > 100 µM | SF-268 > 100 µM | 786-0 > 100 µM | K562 > 100 µM | SK-MEL-2 > 100 µM | HCC 2998 > 100 µM | CAKI-1 > 100 µM | LXFL 529 > 100 µM | SNB-19 > 100 µM | SF-539 > 100 µM

CC(=O)NC(CCCNC(=O)NCCCl)C(=O)NCc1ccccc1 (stereo not given)
inactive: SNB-75 > 100 µM | HOP-62 > 100 µM | HT-29 > 100 µM | RPMI-8226 > 100 µM | UO-31 > 100 µM | ACHN > 100 µM | SF-268 > 100 µM | 786-0 > 100 µM | K562 > 100 µM | SK-MEL-2 > 100 µM | HCC 2998 > 100 µM | CAKI-1 > 100 µM | LXFL 529 > 100 µM | UACC-62 > 100 µM | SNB-19 > 100 µM | SF-539 > 100 µM

O=C(O)c1ccccc1Cc1ccco1
inactive: SNB-75 > 100 µM | HOP-62 > 100 µM | HT-29 > 100 µM | RPMI-8226 > 100 µM | UO-31 > 100 µM | ACHN > 100 µM | SF-268 > 100 µM | 786-0 > 100 µM | K562 > 100 µM | IGROV-1 > 100 µM | SK-MEL-2 > 100 µM | HCC 2998 > 100 µM | CAKI-1 > 100 µM | LXFL 529 > 100 µM | UACC-62 > 100 µM | SNB-19 > 100 µM | SF-539 > 100 µM

CCc1cccc(C)c1NS(=O)(=O)c1ccccc1
inactive: SNB-75 > 100 µM | HOP-62 > 100 µM | HT-29 > 100 µM | RPMI-8226 > 100 µM | UO-31 > 100 µM | ACHN > 100 µM | 786-0 > 100 µM | K562 > 100 µM | IGROV-1 > 100 µM | SK-MEL-2 > 100 µM | HCC 2998 > 100 µM | CAKI-1 > 100 µM | LXFL 529 > 100 µM | UACC-62 > 100 µM | SF-539 > 100 µM

CC1=C(C(=O)CC(=O)C(=O)Nc2cc(C)ccc2C)Sc2ccccc2N1
inactive: HOP-62 > 100 µM | HT-29 > 100 µM | RPMI-8226 > 100 µM | UO-31 > 100 µM | ACHN > 100 µM | SF-268 > 100 µM | 786-0 > 100 µM | K562 > 100 µM | IGROV-1 > 100 µM | SK-MEL-2 > 100 µM | HCC 2998 > 100 µM | CAKI-1 > 100 µM | LXFL 529 > 100 µM | UACC-62 > 100 µM | SNB-19 > 100 µM | SF-539 > 100 µM

Cc1ccc(SC2C(C)(C)N(C(C)C)P2(=O)N(C(C)C)C(C)C)cc1 (stereo not given)
inactive: SNB-75 > 100 µM | HOP-62 > 100 µM | HT-29 26 µM | RPMI-8226 9.35 µM | UO-31 46.1 µM | ACHN 15.8 µM | SF-268 52 µM | 786-0 82.4 µM | K562 17.7 µM | IGROV-1 > 86.3 µM | SK-MEL-2 67 µM | HCC 2998 64.3 µM | CAKI-1 47 µM | LXFL 529 21.3 µM | UACC-62 42.1 µM | SNB-19 51.5 µM | SF-539 > 88.9 µM

CN(c1ccccc1)C1C(=O)N(c2ccccc2)C1/C=C/c1ccccc1 (stereo not given)
inactive: SNB-75 > 100 µM | HT-29 > 100 µM | RPMI-8226 > 100 µM | UO-31 > 100 µM | ACHN > 100 µM | SF-268 > 100 µM | 786-0 > 100 µM | IGROV-1 > 100 µM | SK-MEL-2 > 100 µM | HCC 2998 > 100 µM | CAKI-1 > 100 µM | LXFL 529 > 100 µM | UACC-62 72.6 µM | SNB-19 > 100 µM | SF-539 > 100 µM

O=C(c1ccccc1)[C@H]1Nc2ccc(Cl)cc2C2c3ccccc3CC21 (stereo not given in full)
inactive: SNB-75 20.8 µM | HOP-62 46.1 µM | HT-29 83.9 µM | RPMI-8226 > 100 µM | UO-31 > 100 µM | ACHN 45.2 µM | SF-268 > 100 µM | 786-0 30.8 µM | K562 25.6 µM | IGROV-1 > 100 µM | SK-MEL-2 67 µM | HCC 2998 19.9 µM | CAKI-1 > 100 µM | LXFL 529 27.8 µM | UACC-62 > 10 µM | SNB-19 > 100 µM | SF-539 > 100 µM

N#Cc1ccc(/C=N\N2C(=O)c3ccccc3C2=O)cc1
inactive: SNB-75 > 100 µM | HOP-62 > 100 µM | HT-29 > 100 µM | RPMI-8226 > 100 µM | UO-31 > 100 µM | ACHN > 100 µM | SF-268 > 100 µM | 786-0 > 100 µM | K562 > 100 µM | IGROV-1 > 100 µM | SK-MEL-2 > 100 µM | HCC 2998 > 100 µM | CAKI-1 > 100 µM | LXFL 529 > 100 µM | UACC-62 > 100 µM | SNB-19 > 100 µM | SF-539 > 100 µM

O=C1C=C(Nc2ccccc2C(=O)CC(=O)C(=O)Nc2ccc(Cl)cc2)c2ccccc2C1=O
inactive: SNB-75 17.1 µM | HOP-62 17.7 µM | HT-29 41.5 µM | RPMI-8226 3.21 µM | UO-31 14.7 µM | ACHN 18.2 µM | SF-268 14.2 µM | 786-0 16.3 µM | K562 3.24 µM | IGROV-1 27.4 µM | SK-MEL-2 17.2 µM | HCC 2998 17.5 µM | CAKI-1 29.8 µM | LXFL 529 7.52 µM | UACC-62 13.3 µM | SNB-19 14 µM | SF-539 20.1 µM

Cc1cc(C)c(/C=N/NS(=O)(=O)c2ccccc2)c(C)c1
inactive: SNB-75 > 100 µM | HOP-62 > 100 µM | HT-29 > 100 µM | RPMI-8226 54.5 µM | UO-31 72.1 µM | ACHN > 100 µM | SF-268 > 100 µM | 786-0 > 100 µM | K562 94.4 µM | IGROV-1 > 100 µM | SK-MEL-2 > 100 µM | HCC 2998 > 100 µM | CAKI-1 76.6 µM | LXFL 529 62.2 µM | UACC-62 > 100 µM | SF-539 66.8 µM

C1=CC=C2NCCCCCC/N=C3\C=CC=CC=C3NCCc3cccc(c3)CC/N=C/2C=C1
inactive: SNB-75 21.3 µM | HOP-62 10 µM | HT-29 6.07 µM | RPMI-8226 7.45 µM | UO-31 16.7 µM | ACHN 33 µM | SF-268 31.7 µM | 786-0 10 µM | K562 4.59 µM | IGROV-1 16.9 µM | SK-MEL-2 26.9 µM | HCC 2998 10 µM | CAKI-1 33.3 µM | LXFL 529 10.7 µM | UACC-62 21.7 µM | SNB-19 26.5 µM | SF-539 10.8 µM
